According to US20120034193A1, “TREATMENT OF NEUROTROPHIC FACTOR MEDIATED DISORDERS” (priority 2009, published 2012):

How the values were obtained:
Experiment in all cases: Binding assay
Settings in all cases: smilagenin 1 μM
Chemokine CCR1 = Chemokine CCR1 (Homo sapiens, UniProt P32246)
Description: (§1) The receptor binding was investigated using the following method: Sarsasapogenin was incubated with tissue or cell homogenate that expressed the receptor of interest and a known concentration a radiolabelled compound with affinity for the receptor of interest. After the incubation period the non-bound radiolabelled compound was removed and the amount of specific binding was quantified. The amount of specific binding in the presence and absence of sarsasapogenin were compared and the percent inhibition of the binding of the radiolabelled compound by sarsasapogenin was calculated. The source of the receptor, the incubation conditions, the radiolabelled compound used varied depending on each specific assay.
(§2) Using the same methods as described above, the binding of smilagenin (1 μM) to the receptors listed in Table 2 below, and the effect of smilagenin on the activity of the enzymes listed in Table 2 below, were investigated.

[1] = target: Androgen (testosterone) AR (Rattus norvegicus, UniProt P15207)
Description: as §1, §2

Somatostatin sst3 = Somatostatin sst3 (Homo sapiens, UniProt P32745)
Description: as §1, §2

Purinergic P2X = tested on: Purinergic P2X
Description: as §1, §2

Vasopressin V2 = target: T1, Vasopressin V2 (Homo sapiens, UniProt P30518)
T1 construct: host or cells: tissue or cell homogenate, not specified
T1 sequence (P30518 whole entry): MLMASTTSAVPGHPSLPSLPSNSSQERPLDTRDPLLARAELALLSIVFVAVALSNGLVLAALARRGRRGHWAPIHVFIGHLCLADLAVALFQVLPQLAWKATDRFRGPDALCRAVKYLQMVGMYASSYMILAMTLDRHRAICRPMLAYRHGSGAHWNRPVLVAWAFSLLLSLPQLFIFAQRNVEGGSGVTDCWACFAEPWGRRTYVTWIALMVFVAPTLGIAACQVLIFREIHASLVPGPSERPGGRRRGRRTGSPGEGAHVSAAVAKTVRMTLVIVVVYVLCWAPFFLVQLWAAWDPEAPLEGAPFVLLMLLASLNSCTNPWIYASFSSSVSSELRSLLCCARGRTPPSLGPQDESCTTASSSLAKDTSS
Description: as §1, §2

Adrenergic β2 = Adrenergic β2 (Homo sapiens, UniProt P07550)
Description: as §1, §2

[2] = target: 5-Hydroxytryptamine, 5-HT1A (Homo sapiens, UniProt P08908)
Description: as §1, §2

GABAB1B = target: T2, GABAB1B (Homo sapiens, UniProt Q9UBS5)
T2 construct: host or cells: tissue or cell homogenate (not specified)
Description: as §1, §2

Leptin = Leptin (Mus musculus, UniProt P48356)
Sequence of Leptin (P48356 22-1162): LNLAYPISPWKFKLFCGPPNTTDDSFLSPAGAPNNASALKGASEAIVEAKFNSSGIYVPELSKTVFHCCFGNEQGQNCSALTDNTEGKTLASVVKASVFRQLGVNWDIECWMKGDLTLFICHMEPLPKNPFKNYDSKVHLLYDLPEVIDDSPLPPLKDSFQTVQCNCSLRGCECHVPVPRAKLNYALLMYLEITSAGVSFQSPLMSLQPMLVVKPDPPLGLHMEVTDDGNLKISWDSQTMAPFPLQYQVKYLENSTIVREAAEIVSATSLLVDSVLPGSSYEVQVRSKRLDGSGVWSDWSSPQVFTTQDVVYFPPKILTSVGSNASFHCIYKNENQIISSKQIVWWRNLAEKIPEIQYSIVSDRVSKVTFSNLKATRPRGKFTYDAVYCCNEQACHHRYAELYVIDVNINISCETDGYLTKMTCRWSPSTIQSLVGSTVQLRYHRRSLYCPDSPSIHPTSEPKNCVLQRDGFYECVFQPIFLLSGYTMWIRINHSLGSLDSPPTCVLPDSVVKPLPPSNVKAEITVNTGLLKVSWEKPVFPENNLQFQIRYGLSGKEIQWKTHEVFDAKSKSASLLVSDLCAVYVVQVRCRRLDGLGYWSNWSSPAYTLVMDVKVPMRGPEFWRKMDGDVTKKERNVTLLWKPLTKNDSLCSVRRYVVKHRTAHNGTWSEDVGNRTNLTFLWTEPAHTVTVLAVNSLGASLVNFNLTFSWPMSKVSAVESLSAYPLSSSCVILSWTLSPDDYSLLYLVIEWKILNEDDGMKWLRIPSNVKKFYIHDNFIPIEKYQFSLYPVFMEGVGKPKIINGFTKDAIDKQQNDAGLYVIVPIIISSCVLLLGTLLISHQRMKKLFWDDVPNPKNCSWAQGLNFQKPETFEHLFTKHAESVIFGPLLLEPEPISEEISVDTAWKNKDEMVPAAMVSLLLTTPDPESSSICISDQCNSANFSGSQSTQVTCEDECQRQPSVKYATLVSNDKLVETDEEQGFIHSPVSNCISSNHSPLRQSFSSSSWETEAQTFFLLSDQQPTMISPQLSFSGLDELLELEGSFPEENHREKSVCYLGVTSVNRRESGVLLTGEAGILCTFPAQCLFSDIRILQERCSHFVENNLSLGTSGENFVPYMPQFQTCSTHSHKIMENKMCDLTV
Description: as §1, §2

Calcitonin = Calcitonin (Homo sapiens, UniProt P30988)
Description: as §1, §2

Prostanoid EP2 = Prostanoid EP2 (Homo sapiens, UniProt P43116)
Sequence of Prostanoid EP2 (P43116 whole entry): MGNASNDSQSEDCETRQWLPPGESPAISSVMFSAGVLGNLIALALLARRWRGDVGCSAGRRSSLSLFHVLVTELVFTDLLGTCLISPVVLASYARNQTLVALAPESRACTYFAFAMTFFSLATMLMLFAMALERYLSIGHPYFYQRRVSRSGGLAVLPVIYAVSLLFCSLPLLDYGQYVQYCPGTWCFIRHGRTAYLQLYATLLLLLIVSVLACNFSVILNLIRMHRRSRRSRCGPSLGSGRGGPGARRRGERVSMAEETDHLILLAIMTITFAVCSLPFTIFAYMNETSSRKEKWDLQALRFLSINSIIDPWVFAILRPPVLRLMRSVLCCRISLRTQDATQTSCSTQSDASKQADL
Description: as §1, §2

Dopamine D5 = Dopamine D5 (Homo sapiens, UniProt P21918)
Description: as §1, §2

Histamine H4 = Histamine H4 (Homo sapiens, UniProt Q9H3N8)
Sequence of Histamine H4 (Q9H3N8 whole entry): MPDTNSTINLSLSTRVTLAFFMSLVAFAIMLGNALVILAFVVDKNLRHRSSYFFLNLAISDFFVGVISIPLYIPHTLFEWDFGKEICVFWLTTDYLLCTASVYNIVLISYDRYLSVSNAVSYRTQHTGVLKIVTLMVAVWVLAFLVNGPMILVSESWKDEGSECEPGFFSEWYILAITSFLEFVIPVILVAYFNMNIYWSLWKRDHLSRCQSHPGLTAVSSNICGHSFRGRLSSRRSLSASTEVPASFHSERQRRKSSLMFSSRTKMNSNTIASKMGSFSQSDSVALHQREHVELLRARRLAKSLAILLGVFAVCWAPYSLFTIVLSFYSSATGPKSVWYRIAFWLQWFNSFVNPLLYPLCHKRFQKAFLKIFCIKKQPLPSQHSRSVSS
Description: as §1, §2

[3] = target: 5-Hydroxytryptamine, 5-HT2C (Homo sapiens, UniProt P28335)
Description: as §1, §2

[4] = target: Prostanoid Thromboxane A2 (TP) (Homo sapiens, UniProt P21731)
Description: as §1, §2

[5] = target: N-Formyl Peptide Receptor-Like FPRL1 (Homo sapiens, UniProt P25090)
Description: as §1, §2

Melanocortin MC3 = Melanocortin MC3 (Homo sapiens, UniProt P41968)
Sequence of Melanocortin MC3 (P41968 whole entry): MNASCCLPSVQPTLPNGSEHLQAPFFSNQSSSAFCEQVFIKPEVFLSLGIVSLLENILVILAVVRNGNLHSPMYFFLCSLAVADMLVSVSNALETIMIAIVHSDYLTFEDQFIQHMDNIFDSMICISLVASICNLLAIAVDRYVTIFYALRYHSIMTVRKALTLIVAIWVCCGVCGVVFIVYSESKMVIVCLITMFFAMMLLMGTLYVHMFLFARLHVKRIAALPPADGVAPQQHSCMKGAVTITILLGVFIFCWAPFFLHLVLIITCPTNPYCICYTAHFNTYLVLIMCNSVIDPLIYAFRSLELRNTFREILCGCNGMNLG
Description: as §1, §2

[6] = target: N-Formyl Peptide Receptor FPR1 (Homo sapiens, UniProt P21462)
Description: as §1, §2

Histamine H1 = target: T3, Histamine H1 (Homo sapiens, UniProt P35367)
T3 construct: host or cells: tissue or cell homogenate (not specified)
Description: as §1, §2

[7] = target: T4, Vasoactive Intestinal Peptide, VIP1 (Homo sapiens, UniProt P32241)
T4 construct: host or cells: tissue or cell homogenate, not specified
Description: as §1, §2

[8] = target: Leukotriene, Cysteinyl CysLT2 (Homo sapiens, UniProt Q9NS75)
Description: as §1, §2

Tachykinin NK1 = Tachykinin NK1 (Homo sapiens, UniProt P25103)
Description: as §1, §2

Cannabinoid CB2 = Cannabinoid CB2 (Homo sapiens, UniProt P34972)
Description: as §1, §2

Vasopressin V1B = target: T5, Vasopressin V1B (Homo sapiens, UniProt P47901)
T5 construct: host or cells: tissue or cell homogenate, not specified
Description: as §1, §2

Erythropoietin EPOR = target: T6, Erythropoietin EPOR (Homo sapiens, UniProt P19235)
T6 construct: host or cells: tissue or cell homogenate (not specified)
T6 sequence (P19235 25-508): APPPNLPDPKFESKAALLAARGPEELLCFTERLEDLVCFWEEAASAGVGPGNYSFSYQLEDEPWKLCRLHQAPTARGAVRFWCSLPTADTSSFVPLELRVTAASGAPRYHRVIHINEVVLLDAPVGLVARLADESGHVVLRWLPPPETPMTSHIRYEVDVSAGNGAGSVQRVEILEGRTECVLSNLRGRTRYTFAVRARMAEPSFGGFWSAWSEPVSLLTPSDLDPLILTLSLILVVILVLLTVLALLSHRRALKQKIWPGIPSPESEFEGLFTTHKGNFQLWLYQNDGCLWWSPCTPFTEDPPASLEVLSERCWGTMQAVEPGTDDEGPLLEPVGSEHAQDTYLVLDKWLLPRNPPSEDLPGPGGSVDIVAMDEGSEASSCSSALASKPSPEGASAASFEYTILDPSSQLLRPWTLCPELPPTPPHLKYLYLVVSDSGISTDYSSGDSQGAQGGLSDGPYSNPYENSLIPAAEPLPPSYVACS
Description: as §1, §2

Muscarinic M3 = target: T7, Muscarinic M3 (Homo sapiens, UniProt P20309)
T7 construct: host or cells: tissue or cell homogenate, not specified
T7 sequence (P20309 whole entry): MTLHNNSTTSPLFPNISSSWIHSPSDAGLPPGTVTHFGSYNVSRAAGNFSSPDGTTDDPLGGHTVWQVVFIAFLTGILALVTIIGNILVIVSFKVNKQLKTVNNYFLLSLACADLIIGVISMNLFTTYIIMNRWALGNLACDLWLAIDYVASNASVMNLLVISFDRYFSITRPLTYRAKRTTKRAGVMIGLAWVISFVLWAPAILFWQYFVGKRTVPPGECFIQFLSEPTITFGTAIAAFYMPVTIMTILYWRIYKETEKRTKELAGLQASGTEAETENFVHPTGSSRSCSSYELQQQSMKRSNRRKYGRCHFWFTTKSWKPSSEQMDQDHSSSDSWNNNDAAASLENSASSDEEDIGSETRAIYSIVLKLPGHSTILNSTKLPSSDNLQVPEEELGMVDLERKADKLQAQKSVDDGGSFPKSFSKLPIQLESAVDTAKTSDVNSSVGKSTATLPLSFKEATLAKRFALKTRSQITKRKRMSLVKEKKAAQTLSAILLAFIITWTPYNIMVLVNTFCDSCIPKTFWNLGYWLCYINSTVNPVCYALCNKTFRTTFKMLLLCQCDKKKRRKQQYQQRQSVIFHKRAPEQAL
Description: as §1, §2

Adensonine A1 = Adensonine A1 (Homo sapiens, UniProt P30542)
Sequence of Adensonine A1 (P30542 whole entry): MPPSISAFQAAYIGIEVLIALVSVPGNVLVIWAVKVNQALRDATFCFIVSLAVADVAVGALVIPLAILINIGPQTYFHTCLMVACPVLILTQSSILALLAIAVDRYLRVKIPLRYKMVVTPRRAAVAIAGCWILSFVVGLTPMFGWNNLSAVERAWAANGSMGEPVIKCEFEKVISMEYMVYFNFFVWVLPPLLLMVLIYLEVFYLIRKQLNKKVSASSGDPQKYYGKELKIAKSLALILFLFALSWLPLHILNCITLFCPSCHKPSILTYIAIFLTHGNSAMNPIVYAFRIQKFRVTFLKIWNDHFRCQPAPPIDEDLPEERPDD
Description: as §1, §2

[9] = target: Thyrotropin Releasing Hormone (TRH) (Rattus norvegicus, UniProt Q01717)
Description: as §1, §2

Bombesin BB2 = Bombesin BB2 (Homo sapiens, UniProt P30550)
Description: as §1, §2

Prostanoid EP4 = Prostanoid EP4 (Homo sapiens, UniProt P35408)
Sequence of Prostanoid EP4 (P35408 whole entry): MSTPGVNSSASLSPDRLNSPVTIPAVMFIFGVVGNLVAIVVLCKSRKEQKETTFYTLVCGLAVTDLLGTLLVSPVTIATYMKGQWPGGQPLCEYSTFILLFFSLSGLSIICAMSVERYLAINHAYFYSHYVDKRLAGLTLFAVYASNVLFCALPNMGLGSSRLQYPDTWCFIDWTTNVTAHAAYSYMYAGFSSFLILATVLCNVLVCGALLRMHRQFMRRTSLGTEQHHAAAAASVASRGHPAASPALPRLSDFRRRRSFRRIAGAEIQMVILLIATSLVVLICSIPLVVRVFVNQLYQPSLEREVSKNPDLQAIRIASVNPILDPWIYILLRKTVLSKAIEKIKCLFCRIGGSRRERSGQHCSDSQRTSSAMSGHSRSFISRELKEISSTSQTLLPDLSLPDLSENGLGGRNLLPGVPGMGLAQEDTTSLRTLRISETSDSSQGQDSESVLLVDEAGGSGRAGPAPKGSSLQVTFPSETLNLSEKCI
Description: as §1, §2

Vanilloid = target: T8, Vanilloid (Rattus norvegicus, UniProt O35433)
T8 construct: host or cells: tissue or cell homogenate, not specified
Description: as §1, §2

Adrenergic α1B = Adrenergic α1B (Rattus norvegicus, UniProt P15823)
Description: as §1, §2

Retanoid X Receptor RXRα = Retanoid X Receptor RXRα (Homo sapiens, UniProt P19793)
Sequence of Retanoid X Receptor RXRα (P19793 whole entry): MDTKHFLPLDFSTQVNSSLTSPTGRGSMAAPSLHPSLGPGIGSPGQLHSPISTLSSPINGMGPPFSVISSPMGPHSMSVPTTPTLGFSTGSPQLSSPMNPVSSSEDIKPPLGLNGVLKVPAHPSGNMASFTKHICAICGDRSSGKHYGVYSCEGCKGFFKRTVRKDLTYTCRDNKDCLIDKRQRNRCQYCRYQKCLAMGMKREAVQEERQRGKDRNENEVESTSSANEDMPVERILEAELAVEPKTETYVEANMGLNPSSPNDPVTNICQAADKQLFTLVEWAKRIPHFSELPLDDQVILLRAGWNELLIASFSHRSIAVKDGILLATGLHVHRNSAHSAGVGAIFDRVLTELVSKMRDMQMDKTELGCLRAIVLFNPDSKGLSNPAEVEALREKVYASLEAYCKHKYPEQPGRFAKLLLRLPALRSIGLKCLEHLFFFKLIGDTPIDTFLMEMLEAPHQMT
Description: as §1, §2

Adrenergic α2C = Adrenergic α2C (Homo sapiens, UniProt P18825)
Description: as §1, §2

[10] = target: T9, Growth Hormone Secretagogue (GHS, Ghrelin) (Homo sapiens, UniProt Q92847)
T9 construct: host or cells: tissue or cell homogenate (not specified)
Description: as §1, §2

[11] = target: T10, Epidermal Growth Factor (EGF) (Homo sapiens, UniProt P00533)
T10 construct: host or cells: tissue or cell homogenate (not specified)
Description: as §1, §2

Potassium Channel [KATP] = tested on: Potassium Channel [KATP]
Description: as §1, §2

C[C@@H]1CC[C@@]2(OC1)O[C@H]1C[C@H]3[C@@H]4CC[C@@H]5C[C@@H](O)CC[C@]5(C)[C@H]4CC[C@]3(C)[C@H]1[C@@H]2C [Smilagenin, smilagenin]
Effect (%) (Chemokine CCR1): NS (NS = No significant response. Significance was taken as ≧30% stimulation or inhibition) | Effect (%) [1]: NS (NS = No significant response. Significance was taken as ≧30% stimulation or inhibition) | Effect (%) (Somatostatin sst3): NS (NS = No significant response. Significance was taken as ≧30% stimulation or inhibition) | Effect (%) (Purinergic P2X): NS (NS = No significant response. Significance was taken as ≧30% stimulation or inhibition) | Effect (%) (Vasopressin V2): NS (NS = No significant response. Significance was taken as ≧30% stimulation or inhibition) | Effect (%) (Adrenergic β2): NS (NS = No significant response. Significance was taken as ≧30% stimulation or inhibition) | Effect (%) [2]: NS (NS = No significant response. Significance was taken as ≧30% stimulation or inhibition) | Effect (%) (GABAB1B): NS (NS = No significant response. Significance was taken as ≧30% stimulation or inhibition) | Effect (%) (Leptin): NS (NS = No significant response. Significance was taken as ≧30% stimulation or inhibition) | Effect (%) (Calcitonin): NS (NS = No significant response. Significance was taken as ≧30% stimulation or inhibition) | Effect (%) (Prostanoid EP2): NS (NS = No significant response. Significance was taken as ≧30% stimulation or inhibition) | Effect (%) (Dopamine D5): NS (NS = No significant response. Significance was taken as ≧30% stimulation or inhibition) | Effect (%) (Histamine H4): NS (NS = No significant response. Significance was taken as ≧30% stimulation or inhibition) | Effect (%) [3]: NS (NS = No significant response. Significance was taken as ≧30% stimulation or inhibition) | Effect (%) [4]: NS (NS = No significant response. Significance was taken as ≧30% stimulation or inhibition) | Effect (%) [5]: NS (NS = No significant response. Significance was taken as ≧30% stimulation or inhibition) | Effect (%) (Melanocortin MC3): NS (NS = No significant response. Significance was taken as ≧30% stimulation or inhibition) | Effect (%) [6]: NS (NS = No significant response. Significance was taken as ≧30% stimulation or inhibition) | Effect (%) (Histamine H1): NS (NS = No significant response. Significance was taken as ≧30% stimulation or inhibition) | Effect (%) [7]: NS (NS = No significant response. Significance was taken as ≧30% stimulation or inhibition) | Effect (%) [8]: NS (NS = No significant response. Significance was taken as ≧30% stimulation or inhibition) | Effect (%) (Tachykinin NK1): NS (NS = No significant response. Significance was taken as ≧30% stimulation or inhibition) | Effect (%) (Cannabinoid CB2): NS (NS = No significant response. Significance was taken as ≧30% stimulation or inhibition) | Effect (%) (Vasopressin V1B): NS (NS = No significant response. Significance was taken as ≧30% stimulation or inhibition) | Effect (%) (Erythropoietin EPOR): NS (NS = No significant response. Significance was taken as ≧30% stimulation or inhibition) | Effect (%) (Muscarinic M3): NS (NS = No significant response. Significance was taken as ≧30% stimulation or inhibition) | Effect (%) (Adensonine A1): NS (NS = No significant response. Significance was taken as ≧30% stimulation or inhibition) | Effect (%) [9]: NS (NS = No significant response. Significance was taken as ≧30% stimulation or inhibition) | Effect (%) (Bombesin BB2): NS (NS = No significant response. Significance was taken as ≧30% stimulation or inhibition) | Effect (%) (Prostanoid EP4): NS (NS = No significant response. Significance was taken as ≧30% stimulation or inhibition) | Effect (%) (Vanilloid): NS (NS = No significant response. Significance was taken as ≧30% stimulation or inhibition) | Effect (%) (Adrenergic α1B): NS (NS = No significant response. Significance was taken as ≧30% stimulation or inhibition) | Effect (%) (Retanoid X Receptor RXRα): NS (NS = No significant response. Significance was taken as ≧30% stimulation or inhibition) | Effect (%) (Adrenergic α2C): NS (NS = No significant response. Significance was taken as ≧30% stimulation or inhibition) | Effect (%) [10]: NS (NS = No significant response. Significance was taken as ≧30% stimulation or inhibition) | Effect (%) [11]: NS (NS = No significant response. Significance was taken as ≧30% stimulation or inhibition) | Effect (%) (Potassium Channel [KATP]): NS (NS = No significant response. Significance was taken as ≧30% stimulation or inhibition)
